Legend:
FAAH = assay: Plasma FAAH substrate levels (AEA, OEA, PEA) by LC-MS/MS in MPTP-lesioned marmosets treated with URB597; format: in vivo, common marmosets (Callithrix jacchus)
Procedure: (§1) Six common marmosets (Callithrix jacchus; female; weight, 350-500 g (Harlan, Madison, Wis., USA)) were kept under conditions of controlled temperature (25±2° C.) and a 12-hour light/dark cycle (lights on 6:30 a.m.). Animals were group housed and had access to food, fresh-fruit supplements and water ad libitum and their home cage environment was enriched with primate toys, perches and auditory stimuli. Prior to start of studies, animals were acclimatized to handling, blood collection and administration of treatments (oral syringe feeding and subcutaneous injection) as well as transfer to observation cages for assessment of behavior. A parkinsonian syndrome was induced by once-daily subcutaneous administration of MPTP hydrochloride (Sigma, Canada; 2 mg/kg base concentration in 0.9% saline) for 5 consecutive days. Following this, animals were allowed to recover for 12 weeks to allow parkinsonian symptoms to develop and stabilize. […] Treatment-related complications including dyskinesia and psychosis-like behaviors were evoked by twice-daily treatment with L-DOPA p.o. (as Prolopa®, Roche Canada, Ontario, equivalent to 15 mg/kg L-DOPA and 3.5 mg/kg benserazide) for a minimum of 30 days. […] Disord. 21:839-846; Visanji et al. (2008) Mov. Disord. 23:1922-1925; Visanji et al (2009) Neurobiol Dis. 35: 184-192]. After this time, the animals were used in several studies to evaluate potential anti-parkinsonian and anti-dyskinetic agents. A minimum period of two weeks was allowed between completing any prior study and commencing this study, a period in excess of ten half-lives since administration of any previously employed experimental drug. Throughout the course of the study, on days not requiring plasma sampling or behavioral observations, animals were treated once daily with oral L-DOPA therapy, given at 10:00 a.m. to maintain stable levels of complications. Marmosets treated with MPTP as described in this example are referred to as MPTP-lesioned marmosets.
(§2) MPTP hydrochloride (Sigma, Canada) was dissolved in 0.9% NaCl sterile solution to a concentration of 0.2 mg/ml (freebase) and administered at 1 ml/kg. Maintenance L-DOPA, administered as Prolopa® capsules (Roche, Mississauga, ON, Canada) containing 50 mg L-DOPA and 12.5 mg benserazide (freebase) was dissolved in Gatorade sports beverage (The Gatorade Company, Chicago, Ill.) prior to oral administration by syringe at a volume of 10 ml/kg. On days of behavioral assessment, L-DOPA (20 mg/kg, freebase) was prepared from the methyl ester form (Sigma, Canada) in combination with benserazide hydrochloride (5 mg/kg, freebase, Sigma, Canada) dissolved in 0.9% sterile saline containing 0.1% ascorbate (Sigma, Canada) and 0.05% absolute ethanol. URB597 (Cayman Chemical, Ann Arbor, Mich.) was formulated in a vehicle containing 50% corn oil (Professional Compounding Centers of America (PCCA), Houston, Tex.) and 50% nutritional drink Ensure™ (Abbott Nutrition, Chicago, Ill.) to make the suspension palatable for marmoset oral dosing. Requisite amounts of URB597 were weighed into sterile 50 ml polypropylene tubes (for the 3, 10, 30 and 60 mg/kg doses, 12, 40, 120 and 240 mg were weighed respectively). Then, 10 ml Corn oil was added and mixed until homogenous. Next, 10 ml Ensure™ was added and the mixture mixed gently at first, vortexed and finally sonicated (Ultrasonic Dismembrator, Fisher Scientific model 100, ⅛″) on a medium setting for 30 sec to ensure homogeneity of the suspension. URB597 or vehicle was dosed orally at a volume of 5 ml/kg body weight.
The effect of oral treatment of MPTP-lesioned marmosets with either vehicle or URB597 (3, 10, 30 or 60 mg/kg) on plasma levels of specific endogenous FAAH substrates was assessed. Levels of the endocannabinoid AEA, in addition to the non-cannabinoid fatty acid amides N-palmitoyl-ethanolamide (PEA) and N-oleoyl-ethanolamide (OEA), were measured by LC-MS/MS assays (described below).

MPTP-lesioned marmosets = assay: Rating of parkinsonian disability, dyskinesia and psychosis in MPTP-lesioned marmosets; format: in vivo, common marmosets (Callithrix jacchus)
Procedure: as §1
To assess the effect of treatment on plasma FAAH substrate level, total activity, high activity time and count, data were analyzed using a parametric repeated-measures (RM) 1-way analysis of variance (ANOVA) followed by a Student Newman-Keuls Multiple Comparison post hoc test. To assess the effect of treatment on plasma L-DOPA level a paired, two-tailed t-test was used. All FAAH (AEA, OEA, PEA) subbstrate and L-DOPA plasma level data and activity data are presented as the group mean and SEM For measures of parkinsonian disability, dyskinesia and psychosis, data were analyzed via Friedman's test with Dunn's Multiple Comparison post hoc test. […] In all cases, p<0.05 was taken to represent a significant difference.
as §2, with “homogenous.” for “homogenous. Next, 10 ml Ensure™ was added and the mixture mixed gently at first, vortexed and finally sonicated (Ultrasonic Dismembrator, Fisher Scientific model 100, ⅛″) on a medium setting for 30 sec to ensure homogeneity of the suspension. URB597 or vehicle was dosed orally at a volume of 5 ml/kg body weight.”

MPTP-lesioned macaques = assay: Motor activity (total activity, high activity time and counts) in MPTP-lesioned macaques treated with URB597 and L-DOPA; format: in vivo, cynomolgus monkeys (Macaca fascicularis)
[1] = URB597 10 mg/kg p.o. (two doses), four hours after oral administration, mean±SEM, n=6
[2] = mean of the 4 doses studied (3, 10, 30, 60 mg/kg p.o.) ±SEM
[3] = URB597 10 mg/kg p.o. + L-DOPA 20 mg/kg s.c., 2-4 h, p>0.05 cf. L-DOPA alone

NC(=O)c1cccc(-c2cccc(OC(=O)NC3CCCCC3)c2)c1 [URB597]
mean plasma level of AEA (FAAH; [1]): 5.0 ± 0.45 ng/mL
mean plasma level of OEA (FAAH; [1]): 7.7 ± 0.78 ng/mL
mean plasma level of PEA (FAAH; [1]): 7.0 ± 0.27 ng/mL
FAAH inhibition suggested by fatty acid amide elevations (no dose response) (FAAH; all four doses 3 mg/kg to 60 mg/kg p.o.): complete inhibition of FAAH at all dose levels studied
mean fold change of plasma AEA compared to vehicle treatment (FAAH; [2]): 10.3±0.3 fold
mean fold change of plasma OEA compared to vehicle treatment (FAAH; [2]): 7.8±0.2 fold
mean fold change of plasma PEA compared to vehicle treatment (FAAH; [2]): 1.8±0.1 fold
level of psychosis (MPTP-lesioned marmosets; URB597 10 mg/kg p.o. + L-DOPA 20 mg/kg s.c., 2-4 h): mild to moderate
effect of URB597 on L-DOPA-induced dyskinesia (MPTP-lesioned marmosets; [3]): did not modify
effect of URB597 on L-DOPA-induced psychosis (MPTP-lesioned marmosets; [3]): did not modify
effect of URB597 on anti-parkinsonian actions of L-DOPA (MPTP-lesioned marmosets; [3]): did not modify
dyskinesia score (median) (MPTP-lesioned marmosets; URB597 10 mg/kg p.o. + L-DOPA 20 mg/kg s.c., summed 2-4 h, IQR 13-29, n=6): 18
parkinsonian disability score (median) (MPTP-lesioned marmosets; URB597 10 mg/kg p.o. + L-DOPA 20 mg/kg s.c., summed 2-4 h, maximum 432, IQR 65-114, n=6): 78
effect on parkinsonian disability, dyskinesia or psychosis cf. vehicle (MPTP-lesioned marmosets; URB597 10 mg/kg p.o. given alone (vehicle s.c.), p>0.05): did not modify
total activity counts, high activity time and high activity counts compared to normal macaques (MPTP-lesioned macaques; L-DOPA/URB597 (0.1 ml/kg as printed, i.v.), between 2 and 3 h after L-DOPA): significantly higher
total activity and high activity count compared to L-DOPA alone treatment (MPTP-lesioned macaques; URB597 0.3 mg/ml (so in the source) i.v. + L-DOPA p.o., 2-3 h post L-DOPA, p<0.05): significantly lower

— patent publication US20130150346A1, “Use of FAAH Inhibitors for Treating Parkinson's Disease and Restless Legs Syndrome” (Ironwood Pharmaceutical, Inc., priority 2010, published 2013)
